Experimental data from patent publication US20130023553A1, “PEGYLATED OPIOIDS WITH LOW POTENTIAL FOR ABUSE AND SIDE EFFECTS” (Nektar Therapeutics, priority 2010, published 2013).
Read-outs that look alike come from different tables or passages of the source.

What was measured:
[1] = tested on: CD-1 male mice; experiment: Phenylquinone writhing analgesic assay; format: in vivo; settings: Mus musculus; mPEGn-O-HydroxyCodone series
Method: The assay utilized CD-1 male mice (5-8 mice per group), each mouse being approximately 0.020-0.030 kg on the study day. Mice were treated according to standard protocols. Mice were given a single “pretreatment” dose of a compound lacking covalent attachment of a water-soluble, non-peptidic oligomer (i.e., non-PEG oligomer-modified parent molecule), a corresponding version comprising the compound covalently attached to a water-soluble, non-peptidic oligomer (i.e., the conjugate), or control solution (IV, SC, IP or orally) thirty minutes prior to the administration of the phenylquinone (PQ) solution. Each animal was given an IP injection of an irritant (phenylquinone, PQ) that induces “writhing” which may include: contractions of the abdomen, twisting and turning of the trunk, arching of the back, and the extension of the hindlimbs. Each animal was given an IP injection of PQ (1 mg/kg PQ, 0.1 mL/10 g bodyweight). After the injection, the animals were returned to their observation enclosure and their behavior was observed. Contractions were counted between 35 and 45 minutes after the ‘pretreatment”. The animals were used once. Each tested article was dosed at a range between 0.1 and 100 mg/kg (n=5-10 animals/dose).

[2] = Pharmacokinetics following intravenous (IV) dosing; format: in vivo, Sprague-Dawley rats; set-up: Cmax: unit: ng/mL; settings: for Vd: read-out: Vss
Excerpt: (§1) There were 3 rats/group. All animals were food fasted overnight. […] The predose sample was collected from the JVC.
(§2) Following the last collection point, the animals were euthanized.

[3] = Pharmacokinetics following oral (PO) dosing; format: in vivo, Sprague-Dawley rats; set-up: Cmax: unit: ng/mL
Excerpt: as §1, §2

[4] = molecular target: T1, human mu opioid receptor (Homo sapiens, UniProt P35372); experiment: biochemical; format: binding
T1 construct: expressed in transfected cells; host or cells: CHO cells
T1 sequence (P35372 whole entry): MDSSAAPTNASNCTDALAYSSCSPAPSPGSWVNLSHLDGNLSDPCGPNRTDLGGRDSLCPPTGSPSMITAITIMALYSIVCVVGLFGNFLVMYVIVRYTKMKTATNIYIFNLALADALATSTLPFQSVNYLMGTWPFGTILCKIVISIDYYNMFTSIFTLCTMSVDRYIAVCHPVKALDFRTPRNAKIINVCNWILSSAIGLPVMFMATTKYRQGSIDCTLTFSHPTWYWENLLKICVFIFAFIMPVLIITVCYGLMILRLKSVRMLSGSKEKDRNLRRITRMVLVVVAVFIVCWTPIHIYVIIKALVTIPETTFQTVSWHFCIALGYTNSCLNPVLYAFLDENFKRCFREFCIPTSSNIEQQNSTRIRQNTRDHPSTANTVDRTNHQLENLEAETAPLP
Method: (§3) Radioligand displacement was measured using scintillation proximity assays (SPA).
(§4) Briefly, serial dilutions of the test compounds were placed in a 96-well plate to which were added SPA beads, membrane and radioligand. The assay conditions for each opioid receptor subtype are described in Table 10 below. The plates were incubated for 8 hours-overnight at room temperature, spun at 1000 rpm to pellet the SPA beads, and radioactivity was measured using the TopCount® microplate Scintillation counter. Specific binding at each concentration of test compound was calculated by subtracting the non-specific binding measured in the presence of excess cold ligand. IC50 values were obtained by non-linear regression of specific binding versus concentration curves and Ki values were calculated using Kd values that were experimentally pre-determined for each lot of membrane preparations.

[5] = molecular target: T1, human mu opioid receptor; experiment: cell-based; settings: for Emax: read-out: % max effect, mu opioid receptor
Method: (§5) Studies were conducted in CHO cells heterologously expressing the cloned human mu, kappa or delta opioid receptors. cAMP was measured using a cAMP HiRange homogenous time-resolved fluorescence assay (HTRF Assay), that is based on a competitive immunoassay principle (Cisbio, Cat.#62AM6PEC).
(§6) Briefly, suspensions of cells expressing either the mu, kappa or delta opioid receptors were prepared in buffer containing 0.5 mM isobutyl-methyl xanthine (IBMX). […] EC50 values were calculated for each compound from a sigmoidal dose-response plot of concentrations versus maximum response. To determine if the compounds behaved as full or partial agonists in the system, the maximal response at the highest tested concentrations of compounds were compared to that produced by a known full agonist.

[6] = tested on: squirrel monkeys; experiment: Monkey self-administration model of addictive potential
Excerpt: Dose-related effects of the test articles were examined, using two or more doses of each drug in 3-4 subjects in a double alternation schedule in which each unit dose (or vehicle) was used in two consecutive sessions before a change in unit dose.
Addictive potential of opioid compounds and opioid conjugates of the invention may be assessed through the use of squirrel monkey models as known in the art.
Under the double alternation schedule, each unit dose (or vehicle) was available for intravenous self-administration for two consecutive sessions before the unit dose was changed. In this way, it was possible to establish the function relating unit dose of intravenous drug to (i) number of injections per session, and/or (ii) the percentage of total responses that occur on the lever leading to self-administration (injection-lever responding, % ILR). Unit doses of drugs ranged from 0.01 to 3.2 mg/kg/injection.

[7] = tested on: mice; experiment: Oral dose giving maximal analgesia; format: in vivo
[8] = molecular target: T2, human kappa opioid receptor (Homo sapiens, UniProt P41145); experiment: biochemical; format: binding
T2 construct: expressed in transfected cells; host or cells: CHO cells
T2 sequence (P41145 whole entry): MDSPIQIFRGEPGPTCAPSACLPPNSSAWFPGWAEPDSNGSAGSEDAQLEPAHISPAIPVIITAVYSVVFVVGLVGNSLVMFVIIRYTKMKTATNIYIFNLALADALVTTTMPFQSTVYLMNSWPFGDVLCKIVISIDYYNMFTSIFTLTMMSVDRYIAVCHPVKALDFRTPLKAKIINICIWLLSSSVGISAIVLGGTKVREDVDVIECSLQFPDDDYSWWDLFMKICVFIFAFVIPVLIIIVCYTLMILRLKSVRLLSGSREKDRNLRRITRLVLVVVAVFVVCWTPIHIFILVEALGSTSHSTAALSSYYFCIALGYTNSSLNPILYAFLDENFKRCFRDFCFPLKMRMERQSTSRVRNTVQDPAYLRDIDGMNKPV
Method: as §3, §4

[9] = molecular target: T2, human kappa opioid receptor; experiment: cell-based; settings: maximal response at the highest tested concentration; read-out: % max effect, kappa opioid receptor
Method: as §5, §6

[10] = tested on: Male CD-1 mice; experiment: Assessment of CNS side effects in mice (Straub tail, muscle rigidity, pinna reflex); settings: for Loss Pinna, number of animals responding (N=2) / Muscle Rigidity, number of animals responding (N=2) / Straub Tail Effect, number of animals responding (N=2): oral
Excerpt: The objective of this study was to provide an approximation of the side effect profile of various oligomeric conjugates for comparison to the parent compounds by measuring various gross behavioral and physiological signs following administration of compound.
Additional evaluations included muscle rigidity and pinna reflex.
Male CD-1 mice from Charles River Laboratories, Raleigh, N.C., weighing from 16-18 grams were maintained on a regular light/dark cycle (lights on 0600-1800) with ad libitum food and water for 1 week before commencement of testing. N=2 per treatment condition, i.e., separate mice for each dose of each test article, injection was performed via a 25-gauge ⅝-inch needle on a 1-mL tuberculin syringe for the s.c. route and a 22-gauge stainless steel mouse feeding tube for the p.o. route (Becton, Dickinson & Co., Franklin Lakes, N.J.). Each treatment condition was divided about evenly between two observers. […] Test article was administered (s.c. or p.o., and the mouse was placed immediately in the observation chamber). One-half, 1, 2, and 3 hours later, the animal was observed undisturbed for gross signs such as locomotor ataxia, tremor, hyperactivity, hypoactivity, convulsions, hindlimb splay, and Straub tail, and then removed and assessed for muscle tone (normal, rigid, flaccid), pinna reflex (presence or absence), righting reflex (intact or lost), and placing (whether or not the forepaws are extended when the mouse is placed near a surface).
Each of the tables show the number of animals responding at each dose, where N=2. […] A bolded value indicates the lowest dose at which a response was detected.

[11] = male, Sprague-Dawley, rat, plasma, hydroxycodone series, 1 mg/kg IV, Mean ± SD
[12] = male, Sprague-Dawley, rat, plasma, po, 5 mg/kg
[13] = male, Sprague-Dawley, rat, plasma, hydroxycodone series, 5.0 mg/kg oral, Mean ± SD
[14] = male, Sprague-Dawley, rat, plasma, hydroxycodone series, 5.0 mg/kg oral, Mean ± SD, * n = 2
[15] = male, Sprague-Dawley, rat, plasma, hydroxycodone series, 5.0 mg/kg oral, Mean ± SD, * n = 2, read-out: T1/2(z)
[16] = male, Sprague-Dawley, rat, plasma, hydroxycodone series, 5.0 mg/kg oral, Mean ± SD, read-out: Cmax
[17] = male, Sprague-Dawley, rat, plasma, hydroxycodone series, 5.0 mg/kg oral, median value, read-out: Tmax (converted)
[18] = hydroxycodone series, 1 mg/kg IV, Mean ± SD
[19] = hydroxycodone series, 5.0 mg/kg oral, Mean ± SD
[20] = male, Sprague-Dawley, rat, plasma, iv, 1 mg/kg
[21] = CHO-K1 membranes, [3H]DAMGO 6 nM, read-out: Ki, Mu opioid receptor
[22] = maximal response at the highest tested concentration

COCCOCCOCCOCCOC1CCC2(O)C3Cc4ccc(OC)c5c4C2(CCN3C)C1O5 (stereo not drawn) [α-6-mPEG4-O-hydroxycodone, α-6-mPEG4-O-oxycodone]
ED50 [1]: 17.3 mg/kg | AUC [2, 11]: 192 ng·h/mL | AUC(0-inf) [2, 11]: 193 ng·h/mL | MRT last [2, 11]: 35.6 min | clearance [2, 11]: 86.5 ± 6.36 mL/min/kg | Cmax ([2]; male, Sprague-Dawley, rat, plasma, hydroxycodone series, 1 mg/kg IV, Mean ± SD, read-out: Cmax): 537 ± 31 ng/mL | half-life ([2]; male, Sprague-Dawley, rat, plasma, hydroxycodone series, 1 mg/kg IV, Mean ± SD, read-out: T1/2(z)): 43.6 ± 3.27 min | Vd [2, 11]: 3.34 ± 0.113 L/kg | bioavailability [3, 12]: 11% | AUC [3, 13]: 106 ng·h/mL | MRT last [3, 13]: 96.6 min | AUC(0-inf) [3, 14]: 88 ng·h/mL | half-life [3, 15]: 70.3 min | Cmax [3, 16]: 55.8 ± 4.69 ng/mL | Tmax [3, 17]: 15 min | Ki [4]: 0.893 µM | EC50 [5]: 3.72 µM | Emax [5]: 109%

COc1ccc2c3c1O[C@H]1C(=O)CC[C@@]4(O)[C@@H](C2)N(C)CC[C@]314 [Oxycodone, oxycodone, reference compound]
subjects showing addictive behavior ([6]; 0.01 mg/kg/injection): 25% | injection lever responses (% ILR) ([6]; 0.03 mg/kg/injection): 100% | subjects showing addictive behavior ([6]; 0.03 mg/kg/injection): 100% | injection lever responses (% ILR) ([6]; 0.1 mg/kg/injection): 100% | ED50 [1]: 0.619 mg/kg | AUCall [2, 18]: 12800 ± 1090 ng·min/mL | AUCinf [2, 18]: 13000 ± 1070 ng·min/mL | CL [2, 18]: 77.1 ± 6.26 mL/min/kg | Cmax [2, 18]: 495 ± 56.0 ng/mL | MRTlast [2, 18]: 37.0 ± 1.28 min | T1/2(z) [2, 18]: 47.0 ± 3.99 min | AUCall [3, 19]: 4520 ± 1660 ng·min/mL | Cmax [3, 19]: 25.5 ± 1.86 ng/mL | MRTlast [3, 19]: 179 ± 17.4 min | Tmax ([3]; hydroxycodone series, 5.0 mg/kg oral, median value): 15.0 min | oral dose at which maximal analgesia was obtained [7]: 14 mg/kg

COCCOCCOCCOCCOCCOC1C=CC2C3Cc4ccc(OC)c5c4C2(CCN3C)C1O5 (stereo not drawn) [α-6-mPEG5-O-codeine]
AUC [2, 20]: 192 ng·h/mL | AUC(0-inf) [2, 20]: 195 ng·h/mL | MRT last [2, 20]: 31.8 min | clearance [2, 20]: 86.2 ± 7.04 mL/min/kg | Cmax ([2]; male, Sprague-Dawley, rat, plasma, iv, 1 mg/kg, read-out: Cmax): 533 ± 38.9 ng/mL | half-life ([2]; male, Sprague-Dawley, rat, plasma, iv, 1 mg/kg, read-out: T1/2(2)): 42.7 ± 3.56 min | Vd [2, 20]: 2.95 ± 0.157 L/kg | AUC [3, 12]: 91.8 ng·h/mL | AUC(0-inf) [3, 12]: 98.2 ng·h/mL | MRT last [3, 12]: 108 min | bioavailability [3, 12]: 10.1% | Cmax ([3]; male, Sprague-Dawley, rat, plasma, po, 5 mg/kg, read-out: Cmax): 48.7 ± 10.8 ng/mL | half-life ([3]; male, Sprague-Dawley, rat, plasma, po, 5 mg/kg, read-out: T1/2(2)): 125 ± 63.7 min | Tmax ([3]; male, Sprague-Dawley, rat, plasma, po, 5 mg/kg, read-out: Tmax (converted)): 15 min | Ki [8]: 59.1 µM | Ki [4, 21]: 2.43 µM | Emax [9]: 60% | Emax [5, 22]: 95%

CN1CC[C@]23c4c5ccc(O)c4O[C@H]2[C@@H](O)C=C[C@H]3[C@H]1C5 [Morphine, morphine, reference compound]
injection lever responses (% ILR) ([6]; 0.03 mg/kg/injection): 100% | subjects showing addictive behavior ([6]; 0.1 mg/kg/injection): 100% | mice showing the straub tail response ([10]; oral doses up to 100 mg/kg): 100% | Loss Pinna, number of animals responding (N=2) ([10]; 1 mg/kg): 0 | Muscle Rigidity, number of animals responding (N=2) ([10]; 1 mg/kg): 0 | Straub Tail Effect, number of animals responding (N=2) ([10]; 1 mg/kg): 0 | Loss Pinna, number of animals responding (N=2) ([10]; 3 mg/kg): 2 | Muscle Rigidity, number of animals responding (N=2) ([10]; 3 mg/kg): 0 | Straub Tail Effect, number of animals responding (N=2) ([10]; 3 mg/kg): 2 | Loss Pinna, number of animals responding (N=2) ([10]; 10 mg/kg): 1 | Muscle Rigidity, number of animals responding (N=2) ([10]; 10 mg/kg): 1 | Straub Tail Effect, number of animals responding (N=2) ([10]; 10 mg/kg): 2 | Loss Pinna, number of animals responding (N=2) ([10]; 30 mg/kg): 2 | Muscle Rigidity, number of animals responding (N=2) ([10]; 30 mg/kg): 2 | Straub Tail Effect, number of animals responding (N=2) ([10]; 30 mg/kg): 2 | Loss Pinna, number of animals responding (N=2) ([10]; 100 mg/kg): 2 | Muscle Rigidity, number of animals responding (N=2) ([10]; 100 mg/kg): 2 | Straub Tail Effect, number of animals responding (N=2) ([10]; 100 mg/kg): 1 | Loss Pinna, number of animals responding (N=2) ([10]; 300 mg/kg): 2 | Muscle Rigidity, number of animals responding (N=2) ([10]; 300 mg/kg): 2 | Straub Tail Effect, number of animals responding (N=2) ([10]; 300 mg/kg): 1 | oral dose at which maximal analgesia was obtained [7]: 20 mg/kg

COCCOC1CCC2(O)C3Cc4ccc(OC)c5c4C2(CCN3C)C1O5 (stereo not drawn) [α-6-mPEG1-O-hydroxycodone, α-6-mPEG1-O-oxycodone]
ED50 [1]: 6.06 mg/kg | bioavailability [3, 12]: 2.1% | AUC [3, 13]: 17.5 ng·h/mL | MRT last [3, 13]: 66.8 min | AUC(0-inf) [3, 14]: 19.2 ng·h/mL | half-life [3, 15]: 57.7 min | Cmax [3, 16]: 14.3 ± 6.43 ng/mL | Tmax [3, 17]: 15 min | Ki [4, 21]: 0.654 µM | Emax [5, 22]: 102% | EC50 ([5]; read-out: EC50, mu opioid receptor): 3.84 µM
